Measurements: US8901168B2 (priority 2007, dated 2014)

Legend:
[1] = mice; for total vitamin E accumulation in adipose tissues: compared to unsupplemented control mice; for δ-T3 concentration in adipose tissue: compared to the rest of the groups
[2] = system: IFN-γ; parameters: species or system BALB/c mice; conditions: mouse, in vivo
[3] = system: splenocytes; parameters: species or system BALB/c mice; conditions: mouse, in vivo
[4] = 1 mg oral gavage daily for 56 days

Structure (SMILES) | total vitamin E levels in adipose tissues, ranking of groups ([1]; 1 mg oral gavage daily for 56 days, between supplemented groups) | total vitamin E accumulation in adipose tissues [1, 4] | δ-T3 concentration in adipose tissue ([1]; 56 days) | IFN-γ production following Con A stimulation compared to α-T treated mice [2] | splenocyte proliferation, comparison between vitamin E treated groups [3] | splenocyte proliferative response to Con A [3] | splenocyte proliferative response to TT [3] | α-T (tocopherol) concentration in adipose tissue ([1]; 56 days, compared to the rest of the animal groups) | γ-T3 concentration in adipose tissue ([1]; 56 days, compared to the rest of the animals)
CC(C)=CCC/C(C)=C/CC/C(C)=C/CC[C@]1(C)CCc2cc(O)cc(C)c2O1 [δ-T3, δ-tocotrienol] | highest | significant (P<0.05) levels of total vitamin E accumulation | highest in the δ-T3 fed animals and the levels were highly significant (P<0.01) | significant (P<0.05) increase | slightly increased | significantly (P<0.05) greater proliferative response | significantly (P<0.05) greater proliferative response | – | –
Cc1c(C)c2c(c(C)c1O)CC[C@@](C)(CCC[C@H](C)CCC[C@H](C)CCCC(C)C)O2 [α-T, α-tocopherol] | – | significant (P<0.05) levels of total vitamin E accumulation | did not have any detectable amounts | – | – | significantly (P<0.05) greater proliferative response | significantly (P<0.05) greater proliferative response | significantly (P<0.05) high concentrations of tocopherol | did not have any detectable amounts
